Laboratory results reported in US12357695B2, “Peptides and nanoparticles for intracellular delivery of molecules” (AADIGEN, LLC, priority 2019, dated 2025).
“Also recorded” adds a separate entry of the source.

Key:
mice [1] = test: In vivo delivery of Luciferase mRNA, intramuscular administration, bioluminescence imaging; details: IM, Luc mRNA
Procedure: FIGS. 5A-5B show the potency of ADGN-peptide variants for in vivo delivery of Luciferase mRNA via intramuscular administration in mice. ADGN-peptide/luc mRNA particles containing 2.5 μg mRNA were formed in sterile water, and then diluted in 5% sucrose. Mice received […] injection o 25 μl ADGN-peptide/mRNA complexes. mRNA LUC expression was monitored by bioluminescence imaging after 12 h, 24 h and 48h (A). FIG. 5B show bioluminescence imaging at 24 hr in control and treated groups.
(§1) Stable ADGN-peptides/mRNA were evaluated for in vivo delivery of Luciferase mRNA via intravenous and intramuscular administrations. Animals were treated with single dose of 5 moU modified Luc mRNA of 5 μg. 5 moU modified Luc mRNA (5 μg) in sterile water (GIBCO) were mixed with ADGN peptide (sterile water), volume for each sample was adjusted to 100 μl, with sterile water containing 5% Sucrose. Samples were mixed gently with vortex for 1 minute at low speed and incubated for 30 min at room temperature. Samples were filtered on 0.45 μm PES filters prior administration. For IV administration Mice received 100 μl intravenous (IV) injection of either ADGN-106/mRNA, ADGN-100/mRNA, ADGN-106RI/mRNA, ADGN-100-stearyl/mRNA, ADGN-100Hydro1/mRNA, ADGN-100Hydro2 or ADGN/mRNA complexes containing 10% of ADGN-100PEG (3 animals per group). As control, mice from group 3 (2 animals per group) received IV injection of 100 μl of naked 5 moU modified Luc mRNA (5 μg). For IM administration, mice received 25 μl (5 μg mRNA) IV injection of either ADGN-100/mRNA, ADGN-106/mRNA, ADGN-106RI/mRNA or ADGN/mRNA complexes containing 10% or 20% of ADGN-100PEG (2 animals per group). As control, mice from group 3 (2 animals per group) received IV injection of 25 μl of naked 5 moU modified Luc mRNA (5 μg).
(§2) mRNA Luc expression was monitored by bioluminescence. Bioluminescence imaging was performed after 12, 24, 48 and 72 hrs. Mice received an i.p. injection of 150 μg/g luciferin for noninvasive bioluminescence imaging (IVIS Kinetic; PerkinElmer, Waltham, MA, USA).

mice or rat models = test: Summary of cargo delivery to targeted organ (Table 1); format: in vivo; details: cargoes and route (IV, IM, SQ, NB) per peptide as listed in Table 1
From the text: Table 1 lists a summary of cell-penetrating peptides that have been proven successful in delivering various cargo molecules to on or more targeted organ (e.g., by intravenous (IV), intramuscular (IM), or subcutaneous (SQ) administration, or intratraccheal instillation or nebulization (NB)) in mice or rat models.

mice [2] = test: In vivo delivery of Luciferase mRNA, intravenous administration, bioluminescence imaging; details: 5 μg Luc mRNA, single dose
Procedure: FIGS. 4A-4D show the potency of ADGN-peptide variants for in vivo delivery of Luciferase mRNA via intravenous administration in mice. ADGN-peptide/luc mRNA particles containing 5 μg mRNA were formed in sterile water, and then diluted in 5% sucrose. Mice received IV injection of 100 μl ADGN-peptide/mRNA complexes. mRNA LUC expression was monitored by bioluminescence imaging after 12 h, 24 h, 48 h and 72 h. FIG. 4B show bioluminescence imaging at 24 hr in control and treated groups. Semi-quantitative data of luciferase signal in the liver (C) and in the lung (D) were obtained using the manufacturer's software (Living Image; PerkinElmer). Results were then expressed as values relative to day 0.
as §1, §2

mice [3] = test: In vivo delivery of pGL4 plasmid DNA, intravenous administration, bioluminescence imaging; details: 5 μg pGL4 plasmid
Procedure: FIGS. 6A-6C show the potency of ADGN-peptide variants for in vivo delivery of Luciferase expressing plasmid pGL4 via intravenous administration in mice. ADGN-peptide/pGL4 particles containing 5 μg plasmid DNA were formed in sterile water, and then diluted in 5% sucrose. Mice received IV injection of 100 μl ADGN-peptide/plasmid complexes. pGL4 Luciferase expression was monitored by bioluminescence imaging after 12 h, 24h, 48h and 72h. […] Results were then expressed as values relative to day 0.
(§3) Stable ADGN-peptides/pGL4.11 DNA were evaluated for in vivo delivery of Luciferase mRNA via intravenous and intramuscular administrations. Animals were treated with single dose of pGL4.11 plasmid DNA of 5 μg. via IV and 2.5 μg via intramuscular administration.
pGL4.11 DNA plasmid (5 μg) in sterile water (GIBCO) were mixed with ADGN peptide (sterile water), volume for each sample was adjusted to 100 μl, with sterile water containing 5% Sucrose. Samples were mixed gently with vortex for 1 minute at low speed and incubated for 30 min at room temperature. Samples were filtered on 0.45 μm PES filters prior administration. For IV administration Mice received 100 μl IV injection of either ADGN-106/pGL4, ADGN-100/pGL4, ADGN-100RI/pGL4, ADGN-100-stearyl/PGL4, ADGN-100Hydro1/PGL4, ADGN-100Hydro2/PGL4, ADGN100 Hydro6/PGL4 or ADGN/PGL4 complexes containing 10% or 20% of ADGN-100PEG (3 animals per group). As control, mice from group 3 (2 animals per group) received IV injection of 100 μl of naked pGL4 plasmids (5 μg).
(§4) Luciferase expression was monitored by bioluminescence. Bioluminescence imaging was performed after 12, 24, 48 and 72 hrs. Mice received an i.p. injection of 150 μg/g luciferin for noninvasive bioluminescence imaging (IVIS Kinetic; PerkinElmer, Waltham, MA, USA).

mice [4] = test: In vivo delivery of pGL4 plasmid DNA, intramuscular administration, bioluminescence imaging; details: IM, 2.5 μg pGL4 plasmid
Procedure: FIGS. 7A-7B show the potency of ADGN-peptide variants for in vivo delivery of Luciferase expressing plasmid pGL4 via intramuscular administration in mice. ADGN-peptide/pGL4 luc particles containing 2.5 μg plasmid DNA were formed in sterile water, and then diluted in 5% sucrose. Mice received IV injection of 25 μl ADGN-peptide/pGL4 complexes. Luciferase expression was monitored by bioluminescence imaging after 12 h, 24 h and 48h (A). FIG. 7B show bioluminescence imaging at 24 hr in control and treated groups.
as §3
For IM administration, mice received 25 μl (2.5 μg of pGL4 plasmid) IV injection of either ADGN-100/PGL4, ADGN-106/PGL4, ADGN-100RI/PGL4, ADGN-100hydro1/PGL4, ADGN-100hydro6/PGL4, ADGN-100 stearyl/PGL4 or ADGN-100/PGL4 complexes containing 10% or 20% of ADGN-100PEG (2 animals per group). As control, mice from group 3 (2 animals per group) received IV injection of 25 μl of naked PGL4 plasmid (2.5 μg).
as §4

## Ac-GYVS-Aun(CH2)6-ALWRALWRLWRSLWRLLWKA-NH2 [ADGN-106 hydro-6]
Mice [1]
  increase of luciferase expression in the muscle / efficiency relative to ADGN-106: 4 fold
  luciferase expression: mediated Luciferase expression following intramuscular (IM) administration
Mice or rat models
  Targeted Organ: Tumor/Pancreas/ and Lung

## Ac-YIGSR-(G)4-KWRSALWRWRLWRVRSWSR-NH2 (Ac-YIGSRGGGGKWRSALWRWRLWRVRSWSR-NH2) [ADGN-100-Hydro-1]
Mice [2]
  mRNA / luciferase expression and tissues: negligible luciferase expression
Mice [3]
  luciferase expression and tissues: negligible luciferase expression
Mice [4]
  luciferase expression: no significant expression
Mice or rat models
  Targeted Organ: Lung/Kidney/; also recorded: Liver
